The numbers were not newly measured in US20020111317A1, “Sixteen-membered macrolide compounds” (priority 2000, published 2002), which cites them from elsewhere.

For one series, the target named is wildtype ribosomes. The following applies: read-out: Kd using wildtype ribosomes.
Series [1] deals with methylated ribosome (e.g., A2058G mutant). The following applies: read-out: Kd using methylated ribosome.

As usually defined, the Kd is the constant that tells how readily two partners part at equilibrium. With `CC[C@H]1OC(=O)[C@H](C)[C@@H](O[C@H]2C[C@@](C)(OC)[C@@H](O)[C@H](C)O2)[C@H](C)[C@@H](O[C@@H]2O[C@H](C)C[C@H](N(C)C)[C@H]2O)[C@](C)(O)C[C@@H](C)C(=O)[C@H](C)[C@@H](O)[C@]1(C)O` [erythromycin A], the figures for the equilibrium dissociation constant (Kd) (at wildtype ribosomes; in series [1]) were about 14 nM and about 190000 nM, respectively.

As to `CC[C@H]1OC(=O)[C@H](C)C(=O)[C@H](C)[C@@H](O[C@@H]2O[C@H](C)C[C@H](N(C)C)[C@H]2O)[C@](C)(OC)C[C@@H](C)C(=O)[C@H](C)[C@H]2N(CCCCn3cnc(-c4cccnc4)c3)C(=O)O[C@]12C` [telithromycin], the results for the Kd (on wildtype ribosomes; in series [1]) were about 1.3 nM and about 58 nM, respectively.
